Assays:
hypertensive rats = test: Antihypertensive activity in vivo, conscious hypertensive rats, mean blood pressure; details: 50 mg/kg (ip)
Protocol: The ability of compounds of this invention to lower blood pressure can be determined in vivo using hypertensive rats according to standard and well known procedures. The test compound is administered intraperitoneally (ip) to conscious rats and the blood pressure monitored continuously. Decreased mean blood pressure over time was observed when a compound of this invention was tested by the above described procedure, as indicated in Table II.

[1] = tested on: dopamine-β-hydroxylase (DBH); test: DBH inhibitory activity in vitro (time-dependent inactivation; oxygen uptake with tyramine substrate); assay type: biochemical; details: 1 mM, pH 4.5 to 5.5, preferably pH 5.0, 20-40° C., preferably 37° C., spread +/-1.1
Protocol: The DBH inhibitory properties of the compounds of this invention can readily be determined by standard and well known procedures such as those procedures set forth in U.S. Pat. No. 4,415,591. […] The test compound is added at the desired concentration, and the system is incubated. At different time intervals aliquots are taken and DBH activity is measured using tyramine as the substrate. The reaction is followed by measuring oxygen uptake using a polarographic electrode and an oxygen monitor by the method of S. May, et al., J. Biol. Chem. 256, 2258 (1981).

C=C=C(CN)c1cccs1 [β-ethenylidene-2-thiopheneethanamine, β-Ethenylidene-2-thiopheneethanamine]
Maximum % Change in mean Blood Pressure (hypertensive rats; decrease per text): 15.6%
Duration (hypertensive rats; duration of blood pressure change): 10 h
t 1/2 (time required for 50% inhibition) [1]: 1.3 h
